Assay results: patent publication US12527833B2, “Pharmaceutical composition made from hydrophobic phytochemicals dispersed in sesame oil to enhance bioactivity” (ARJUNA NATURAL PVT. LTD., priority 2017, dated 2026)

Legend:
[1] = tested on: Carrageenan induced paw edema; experiment: Carrageenan paw edema in rats: Boswellia dispersion at different SSA values (Example 9); format: in vivo
Protocol: The animals were housed in polypropylene cages and maintained under standard animal house conditions (12:12 hour light/dark cycle at 24±2° C. and 45-65% relative humidity). The rats had free access to standard pellet diet and water. 15 rats were divided into 5 groups comprising of 3 rats in each group. The rats were deprived of food, but had free access to drinking water for 12 h prior to the experiment. The treatment was as follows: After 12 hour fasting, baseline paw volume was recorded for each rat using digital plethysmometer (Ugo Basile, […]). Carrageenan (0.1 ml of 1%) in saline (0.9% NaCl) was injected into the plantar surface of the right hind paw of the animals. The experimental groups were given the designated extract/standard orally, 30 minutes prior to the injection of the carrageenan. After injection of carrageenan, paw volume was recorded at 3 hr to 6 hr post carrageenan. The edema was expressed as an increase in the volume of paw from baseline value, and the percentage of inhibition for each rat was calculated. • Group 1: 50 mg/Kg BS-1 (SSA 200-500 m^2/kg). • Group 2: 50 mg/Kg, BS-2 (SSA 700-1000 m^2/kg) • Group 3: 50 mg/Kg BS-3 (SSA 1100-1200 m^2/kg) • Group 4: 50 mg/Kg BS-4 (SSA>1300 m^2/kg) • Group 5: 10 mg/Kg Diclofenac.

[2] = tested on: Carrageenan Induced Paw Edema; experiment: Anti-inflammatory activity in carrageenan induced paw edema in rats (Example 11); format: in vivo, SD rats; conditions: 6 h after carrageenan; oral; dose per group 10-100 mg/Kg; 6 rats per group
Protocol: SD rats (M/F) weighing 180-220 gm. were selected for the study. The animals were acclimatized for a period of five days and they were fed with standard pellet diet and water ad libitum. After five days of acclimatization, the rats were deprived of food, but had free access to drinking water for 12 hours prior to the experiment. Right hind paw of each rat was marked at the tibio-tarsal junction and baseline paw volume was determined using a digital plethysmometer (UGO BASILE, ITALY). Rats were divided into different groups keeping 6 rats in each group. Test sample/standard NSAID/vehicle was fed orally at designated dose. After 30 minutes of test sample/standard/vehicle, 0.1 ml carrageenan (1% suspension in 0.9% NaCl) was injected to the animals in subplantar region of the right hind paw. The paw volume was again determined for all the animals at 6 h after carrageenan injection and percentage inhibition was calculated by using following formula: […]

[3] = tested on: Carrageenan induced paw edema; experiment: Carrageenan paw edema in rats: different ratios of Boswellia and sesame oil (Example 10); format: in vivo
Protocol: The animals were housed in polypropylene cages and maintained under standard animal house conditions (12:12 hour light/dark cycle at 24±2° C. and 45-65% relative humidity). The rats had free access to standard pellet diet and water. 27 rats were divided into 9 groups comprising of 3 rats in each group. The rats were deprived of food, but had free access to drinking water for 12 h prior to the experiment. The treatment was as follows: After 12 hour fasting, baseline paw volume was recorded for each rat using digital plethysmometer (Ugo Basile, […]). Carrageenan (0.1 ml of 1%) in saline (0.9% NaCl) was injected into the plantar surface of the right hind paw of the animals. The experimental groups were given the designated extract/standard orally, 30 minutes prior to the injection of the carrageenan. After injection of carrageenan, paw volume was recorded at 3 hr to 6 hr post carrageenan. The edema was expressed as an increase in the volume of paw from baseline value, and the percentage of inhibition for each rat was calculated. Different compositions of sesame oil with boswellia was tested to find out the optimum ratio with enhanced activity. Each composition of boswellia has undergone a regress milling and grinding resulting in SSA of greater than 1.2×10^3 m^2/kg. • Group 1: 50 mg/Kg AKBA10+Sesame oil (2:3). • Group 2: 50 mg/Kg, AKBA10+Sesame oil (5:7) • Group 3: 50 mg/Kg AKBA10+Sesame oil (9:11) • Group 4: 50 mg/Kg AKBA10+Sesame oil (1:3) • Group 5: 50 mg/Kg AKBA10+Sesame oil (1:5) • Group 6: 50 mg/Kg AKBA10+Sesame oil (1:9) • Group 7: 50 mg/Kg AKBA10+Sesame oil (1:1) • Group 8: 50 mg/Kg AKBA10+Sesame oil • Group 9: 10 mg/Kg Diclofenac

With `O=C(O)Cc1ccccc1Nc1c(Cl)cccc1Cl` [Diclofenac] the “Percentage inhibition (%) 3HR” value ([1]; 3 hr post carrageenan, oral, BS samples 50 mg/kg, Diclofenac 10 mg/kg) was 68%, the “Percentage inhibition (%) 6HR” value ([1]; 6 hr post carrageenan, oral, BS samples 50 mg/kg, Diclofenac 10 mg/kg) was 94% and the Avrage percentage inhibition ([1]; average of 3HR and 6HR) was 81%. The “Percentage inhibition in 6 Hours” value [2] was 86%, the “Percentage inhibition (%) 3HR” value ([3]; 3 hr post carrageenan, oral, AKBA10+sesame oil 50 mg/Kg, SSA >1.2×10^3 m^2/kg, Diclofenac 10 mg/kg) was 66% and the “Percentage inhibition (%) 6HR” value ([3]; 6 hr post carrageenan, oral, AKBA10+sesame oil 50 mg/Kg, Diclofenac 10 mg/kg) was 98%. The Average percentage inhibition ([3]; average of 3HR and 6HR) was 82%.
